Reference: ChEMBL document CHEMBL3885881, “DrugMatrix”

Species on record: Rattus norvegicus
Assay: DrugMatrix - Regimen: Daily Repeat
Assay type: toxicity, organism-based, Sprague-Dawley
Design: regimen Daily Repeat, gender Male, age 6-8 weeks
Conditions: in vivo, po, route oral GAVAGE, vehicle 100 % WATER; for ABSOLUTE BASOPHIL / ABSOLUTE EOSINOPHIL / ABSOLUTE LYMPHOCYTE / ABSOLUTE MONOCYTE / ABSOLUTE SEGMENTED NEUTROPHIL / BASOPHIL / EOSINOPHIL / ERYTHROCYTE COUNT / HEMATOCRIT / HEMOGLOBIN / LEUKOCYTE COUNT / LYMPHOCYTE / MEAN CORPUSCULAR HEMOGLOBIN / MEAN CORPUSCULAR HEMOGLOBIN CONCENTRATION / MEAN CORPUSCULAR VOLUME / MONOCYTE / NEUTROPHIL / NUCLEATED RED BLOOD CELLS / PLATELET COUNT: tissue Blood; for ALANINE AMINOTRANSFERASE / ALBUMIN / ALKALINE PHOSPHATASE / ASPARTATE AMINOTRANSFERASE / BLOOD UREA NITROGEN / CARBON DIOXIDE / CHLORIDE / CHOLESTEROL / CREATINE PHOSPHOKINASE / CREATININE / GLUCOSE / LACTATE DEHYDROGENASE / LIPASE / PHOSPHORUS / POTASSIUM / SODIUM / TOTAL BILIRUBIN / TOTAL PROTEIN / URIC ACID: tissue Plasma
[1] = 0 mg/kg, 72 h, dose level Control, time 3 day
[2] = 0 mg/kg, 120 h, dose level Control, time 5 day
[3] = 175 mg/kg, 72 h, dose level High, time 3 day

With `O=c1[nH]c(=O)n(C2CCCO2)cc1F` (centres undefined) [TEGAFUR] the “ABSOLUTE BASOPHIL” value [1] was 0 CELLS/uL, the “ABSOLUTE EOSINOPHIL” value [1] was 168.33 CELLS/uL and the “ABSOLUTE LYMPHOCYTE” value [1] was 13654.17 CELLS/uL. For the same compound, the “ABSOLUTE MONOCYTE” value [1] was 121 CELLS/uL, the “ABSOLUTE SEGMENTED NEUTROPHIL” value [1] was 1223.17 CELLS/uL and the BASOPHIL [1] was 0%. For the same compound, the EOSINOPHIL [1] was 1.17%, the “ERYTHROCYTE COUNT” value [1] was 5.7 x10E6/uL and the HEMATOCRIT [1] was 35.33%. For the same compound, the HEMOGLOBIN [1] was 13.97 G/DL, the “LEUKOCYTE COUNT” value [1] was 15.17 x10E3/uL and the LYMPHOCYTE [1] was 89.83%. For the same compound, the “MEAN CORPUSCULAR HEMOGLOBIN” value [1] was 24.53 pg, the “MEAN CORPUSCULAR HEMOGLOBIN CONCENTRATION” value [1] was 39.53 G/DL and the “MEAN CORPUSCULAR VOLUME” value [1] was 62.05 fL. The MONOCYTE [1] was 0.83%, the NEUTROPHIL [1] was 8.17% and the “NUCLEATED RED BLOOD CELLS” value [1] was 0 /100WBC. The “PLATELET COUNT” value [1] was 1312.17 x10E3/uL, the “ALANINE AMINOTRANSFERASE” value [1] was 50.83 u/L and the ALBUMIN [1] was 4.18 G/DL. The “ALKALINE PHOSPHATASE” value [1] was 334.17 u/L, the “ASPARTATE AMINOTRANSFERASE” value [1] was 82.17 u/L and the “BLOOD UREA NITROGEN” value [1] was 15.5 mg/dL. For the same compound, the “CARBON DIOXIDE” value [1] was 31.33 mmol/L, the CHLORIDE [1] was 99.83 MEQ/L and the CHOLESTEROL [1] was 76 mg/dL. The “CREATINE PHOSPHOKINASE” value [1] was 272.17 u/L, the CREATININE [1] was 0.17 mg/dL and the GLUCOSE [1] was 143 mg/dL. For the same compound, the “LACTATE DEHYDROGENASE” value [1] was 157.5 u/L, the LIPASE [1] was 9.33 u/L and the PHOSPHORUS [1] was 12.18 mg/dL. The POTASSIUM [1] was 6.78 MEQ/L, the SODIUM [1] was 143.9 MEQ/L and the “TOTAL BILIRUBIN” value [1] was 0.22 mg/dL. The “TOTAL PROTEIN” value [1] was 5.85 G/DL, the “URIC ACID” value [1] was 1.7 mg/dL and the “ABSOLUTE BASOPHIL” value [2] was 0 CELLS/uL. The “ABSOLUTE EOSINOPHIL” value [2] was 0 CELLS/uL, the “ABSOLUTE LYMPHOCYTE” value [2] was 13539.33 CELLS/uL and the “ABSOLUTE MONOCYTE” value [2] was 177.67 CELLS/uL. For the same compound, the “ABSOLUTE SEGMENTED NEUTROPHIL” value [2] was 2116.33 CELLS/uL, the BASOPHIL [2] was 0% and the EOSINOPHIL [2] was 0%. The “ERYTHROCYTE COUNT” value [2] was 5.78 x10E6/uL, the HEMATOCRIT [2] was 36.13% and the HEMOGLOBIN [2] was 14.1 G/DL. For the same compound, the “LEUKOCYTE COUNT” value [2] was 15.83 x10E3/uL, the LYMPHOCYTE [2] was 85.83% and the “MEAN CORPUSCULAR HEMOGLOBIN” value [2] was 24.42 pg. For the same compound, the “MEAN CORPUSCULAR HEMOGLOBIN CONCENTRATION” value [2] was 39 G/DL, the “MEAN CORPUSCULAR VOLUME” value [2] was 62.55 fL and the MONOCYTE [2] was 0.83%. The NEUTROPHIL [2] was 13.33%, the “NUCLEATED RED BLOOD CELLS” value [2] was 0.17 /100WBC and the “PLATELET COUNT” value [2] was 1281.17 x10E3/uL. For the same compound, the “ALANINE AMINOTRANSFERASE” value [2] was 55.5 u/L, the ALBUMIN [2] was 4.22 G/DL and the “ALKALINE PHOSPHATASE” value [2] was 345 u/L. The “ASPARTATE AMINOTRANSFERASE” value [2] was 92.5 u/L, the “BLOOD UREA NITROGEN” value [2] was 16.5 mg/dL and the “CARBON DIOXIDE” value [2] was 26.5 mmol/L. The CHLORIDE [2] was 103.5 MEQ/L, the CHOLESTEROL [2] was 78.5 mg/dL and the “CREATINE PHOSPHOKINASE” value [2] was 381.5 u/L. For the same compound, the CREATININE [2] was 0.21 mg/dL, the GLUCOSE [2] was 161.83 mg/dL and the “LACTATE DEHYDROGENASE” value [2] was 487.5 u/L. It also gave an LIPASE [2] of 10.17 u/L, a PHOSPHORUS [2] of 11.83 mg/dL and a POTASSIUM [2] of 6.4 MEQ/L. The SODIUM [2] was 146.95 MEQ/L, the “TOTAL BILIRUBIN” value [2] was 0.22 mg/dL and the “TOTAL PROTEIN” value [2] was 6.22 G/DL. The “URIC ACID” value [2] was 1.83 mg/dL, the “ABSOLUTE BASOPHIL” value [3] was 0 CELLS/uL and the “ABSOLUTE EOSINOPHIL” value [3] was 0 CELLS/uL. For the same compound, the “ABSOLUTE LYMPHOCYTE” value [3] was 11530.33 CELLS/uL, the “ABSOLUTE MONOCYTE” value [3] was 235 CELLS/uL and the “ABSOLUTE SEGMENTED NEUTROPHIL” value [3] was 434.67 CELLS/uL. The BASOPHIL [3] was 0%, the EOSINOPHIL [3] was 0% and the “ERYTHROCYTE COUNT” value [3] was 5.62 x10E6/uL. The HEMATOCRIT [3] was 35%, the HEMOGLOBIN [3] was 13.93 G/DL and the “LEUKOCYTE COUNT” value [3] was 12.2 x10E3/uL. The LYMPHOCYTE [3] was 94.33%, the “MEAN CORPUSCULAR HEMOGLOBIN” value [3] was 24.87 pg and the “MEAN CORPUSCULAR HEMOGLOBIN CONCENTRATION” value [3] was 39.83 G/DL. The “MEAN CORPUSCULAR VOLUME” value [3] was 62.43 fL, the MONOCYTE [3] was 2% and the NEUTROPHIL [3] was 3.67%. For the same compound, the “NUCLEATED RED BLOOD CELLS” value [3] was 0 /100WBC, the “PLATELET COUNT” value [3] was 1245 x10E3/uL and the “ALANINE AMINOTRANSFERASE” value [3] was 377 u/L. The ALBUMIN [3] was 4.23 G/DL, the “ALKALINE PHOSPHATASE” value [3] was 316.67 u/L and the “ASPARTATE AMINOTRANSFERASE” value [3] was 623.67 u/L. The “BLOOD UREA NITROGEN” value [3] was 18 mg/dL, the “CARBON DIOXIDE” value [3] was 25.33 mmol/L and the CHLORIDE [3] was 98 MEQ/L. For the same compound, the CHOLESTEROL [3] was 59.33 mg/dL, the “CREATINE PHOSPHOKINASE” value [3] was 3619.67 u/L and the CREATININE [3] was 0.24 mg/dL. For the same compound, the GLUCOSE [3] was 187.67 mg/dL, the “LACTATE DEHYDROGENASE” value [3] was 3501.33 u/L and the LIPASE [3] was 13.33 u/L. The PHOSPHORUS [3] was 13.57 mg/dL, the POTASSIUM [3] was 9.03 MEQ/L and the SODIUM [3] was 141.23 MEQ/L. For the same compound, the “TOTAL BILIRUBIN” value [3] was 0.23 mg/dL, the “TOTAL PROTEIN” value [3] was 5.9 G/DL and the “URIC ACID” value [3] was 2.9 mg/dL.
